Reference: patent US6610299B1, “Glycosyl-etoposide prodrugs, a process for preparation thereof and the use thereof in combination with functionalized tumor-specific enzyme conjugates” (Aventis Pharma Deutschland GmbH, priority 1989, dated 2003)

Experiments:
[1] = system: tumor-specific antibody-glucosidase conjugate; details: in vitro
alpha-glucosidase = details: in vitro, enzyme alpha-glucosidase
[2] = target: T1, 431/26 hum VH huβGlc 1H fusion protein (Homo sapiens, UniProt P01860+P08236); experiment: prodrug cleavage by β-glucuronidase (fusion protein), HPLC; format: biochemical
T1 construct: made in house; host or cells: BHK cells
Description: (§1) It was shown in Example 17 that the β-glucuronidase portion of the fusion protein is able, like the native human enzyme, to cleave the β-glucuronide of 4-methylumbelliferol. In the investigations which are described hereinafter, the substrate used for the enzymatic cleavage was a β-glucuronide, linked via a spacer group, of the cytostatic daunomycin. The specific procedure for these investigations was as follows:
(§2) 4 mg of the compound N-(4-hydroxy-3-nitrobenzyloxy-carbonyl)daunorubicin β-D-glucuronide (prodrug), which is described in French Patent Application (No. d'Enregistrement National: 9105326) were dissolved in 1 ml of 20 mM phosphate buffer, pH 7.2. 35 μl of the fusion protein (Example 21) or of human β-glucuronidase (total concentration in each case 6.5 U/ml; 1 U=cleavage of 1 μmol of 4-methyl-umbelliferol/min at 37° C.) were pipetted into 5 μl portions of this substrate solution and incubated in the dark at 37° C. Samples (5 μl) of the incubation mixture were removed after various times and immediately analyzed by high pressure liquid chromatography under the following conditions:
(§3) Nucleosil 100 RP 18, 5 μm particle diameter, 125×4.6 mm
(§4) Gradient of solution A (100% acetonitrile) and solution B (20 mM phosphate buffer pH.3.0)
(§5) Detection: fluorescence, excitation 495 nm, emission […]
(§6) Data analysis: Beckman System Gold Software

human β-glucuronidase = target: T2, human β-glucuronidase (Homo sapiens, UniProt P08236); experiment: prodrug cleavage by β-glucuronidase (human, recombinant), HPLC; format: biochemical
T2 sequence (P08236 23-651): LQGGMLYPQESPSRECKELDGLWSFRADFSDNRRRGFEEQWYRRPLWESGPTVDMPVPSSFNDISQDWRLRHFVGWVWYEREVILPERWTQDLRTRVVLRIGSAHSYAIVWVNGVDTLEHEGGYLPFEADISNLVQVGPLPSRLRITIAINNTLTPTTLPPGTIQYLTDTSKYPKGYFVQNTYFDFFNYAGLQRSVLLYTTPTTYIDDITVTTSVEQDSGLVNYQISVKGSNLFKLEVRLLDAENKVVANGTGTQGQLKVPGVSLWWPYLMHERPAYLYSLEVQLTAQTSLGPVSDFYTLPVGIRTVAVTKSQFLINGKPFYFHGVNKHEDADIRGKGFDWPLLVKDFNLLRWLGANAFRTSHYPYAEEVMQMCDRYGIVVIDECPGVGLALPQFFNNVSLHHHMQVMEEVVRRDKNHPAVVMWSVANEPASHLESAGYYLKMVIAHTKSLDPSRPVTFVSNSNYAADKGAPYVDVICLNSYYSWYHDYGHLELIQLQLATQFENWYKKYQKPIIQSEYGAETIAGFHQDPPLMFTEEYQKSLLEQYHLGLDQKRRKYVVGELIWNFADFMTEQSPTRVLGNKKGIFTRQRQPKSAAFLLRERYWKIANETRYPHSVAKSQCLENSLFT
Description: as §1, §2, §3, §4, §5, §6

T1 sequence (P01860+P08236 fused): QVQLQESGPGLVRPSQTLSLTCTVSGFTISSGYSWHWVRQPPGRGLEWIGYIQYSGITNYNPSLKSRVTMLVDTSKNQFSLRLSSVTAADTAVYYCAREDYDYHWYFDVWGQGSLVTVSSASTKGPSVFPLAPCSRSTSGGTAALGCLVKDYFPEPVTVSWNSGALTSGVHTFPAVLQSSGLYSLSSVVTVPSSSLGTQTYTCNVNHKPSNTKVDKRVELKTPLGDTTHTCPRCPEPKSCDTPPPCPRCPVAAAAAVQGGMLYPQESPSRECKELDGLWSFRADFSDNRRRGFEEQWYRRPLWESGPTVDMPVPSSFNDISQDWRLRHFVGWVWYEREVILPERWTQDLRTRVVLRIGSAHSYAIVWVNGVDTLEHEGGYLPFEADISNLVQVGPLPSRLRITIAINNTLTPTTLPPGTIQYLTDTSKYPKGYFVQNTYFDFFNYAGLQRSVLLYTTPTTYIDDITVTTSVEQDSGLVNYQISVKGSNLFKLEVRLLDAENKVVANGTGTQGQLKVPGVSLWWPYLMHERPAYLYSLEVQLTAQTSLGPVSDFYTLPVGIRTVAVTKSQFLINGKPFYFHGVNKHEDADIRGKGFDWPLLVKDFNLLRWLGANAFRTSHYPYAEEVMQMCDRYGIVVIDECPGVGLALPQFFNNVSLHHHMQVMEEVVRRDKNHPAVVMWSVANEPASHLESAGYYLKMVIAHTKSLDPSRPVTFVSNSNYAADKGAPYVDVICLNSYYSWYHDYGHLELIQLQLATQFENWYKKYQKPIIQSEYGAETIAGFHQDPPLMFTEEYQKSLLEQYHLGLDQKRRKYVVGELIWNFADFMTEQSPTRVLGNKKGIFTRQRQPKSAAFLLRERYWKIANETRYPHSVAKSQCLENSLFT

## 4′-O-alpha-D-glucopyranosyl-etoposide
[1]
  cleavage into etoposide and D-glucose: can be cleaved in vitro into etoposide and D-glucose
alpha-glucosidase
  cleavage into etoposide and D-glucose: can be cleaved in vitro into etoposide and D-glucose

## COc1cccc2c1C(=O)c1c(O)c3c(c(O)c1C2=O)C[C@@](O)(C(C)=O)C[C@@H]3O[C@H]1C[C@H](NC(=O)OCc2ccc(O[C@@H]3O[C@H](C(=O)O)[C@@H](O)[C@H](O)[C@H]3O)c([N+](=O)[O-])c2)[C@H](O)[C@H](C)O1 [Prodrug, N-(4-hydroxy-3-nitrobenzyloxy-carbonyl)daunorubicin β-D-glucuronide]
[2]; t 0 min
  DNM area % (liberated daunomycin): 1.1 area %
  Prodrug area %: 98.9 area %
[2]; t 50 min
  DNM area % (liberated daunomycin): 18.9 area %
  Prodrug area %: 81.1 area %
[2]; t 135 min
  DNM area % (liberated daunomycin): 48.3 area %
  Prodrug area %: 51.7 area %
[2]; t 190 min
  DNM area % (liberated daunomycin): 67.0 area %
  Prodrug area %: 33.0 area %
[2]; t 247 min
  DNM area % (liberated daunomycin): 78.0 area %
  Prodrug area %: 22.0 area %
[2]; t 317 min
  DNM area % (liberated daunomycin): 87.6 area %
  Prodrug area %: 12.4 area %
Human β-glucuronidase; t 0 min
  DNM area % (liberated daunomycin): 0.8 area %
  Prodrug area %: 99.2 area %
Human β-glucuronidase; t 57 min
  DNM area % (liberated daunomycin): 64.0 area %
  Prodrug area %: 36.0 area %
Human β-glucuronidase; t 130 min
  DNM area % (liberated daunomycin): 89.7 area %
  Prodrug area %: 10.3 area %
Human β-glucuronidase; t 227 min
  DNM area % (liberated daunomycin): 90.7 area %
  Prodrug area %: 9.3 area %
